Like-named read-outs stand apart in the source and are kept apart here.
Key:
ex vivo worms in culture = assay: Ex vivo parasite killing, visual examination of cultured worms; parameters: species or system Schistosoma
[1] = human, microsomes, 1 h
[2] = NO release on reaction with cysteine, chemiluminescent assay; details: for NO donation on reaction with cysteine (in words): chemiluminescent assay
TGR = biological target: T1, TGR (Schistosoma mansoni, UniProt Q962Y6); type: biochemical; details: with TGR; ABTS method, data in supporting information
T1 sequence (Q962Y6 1-598): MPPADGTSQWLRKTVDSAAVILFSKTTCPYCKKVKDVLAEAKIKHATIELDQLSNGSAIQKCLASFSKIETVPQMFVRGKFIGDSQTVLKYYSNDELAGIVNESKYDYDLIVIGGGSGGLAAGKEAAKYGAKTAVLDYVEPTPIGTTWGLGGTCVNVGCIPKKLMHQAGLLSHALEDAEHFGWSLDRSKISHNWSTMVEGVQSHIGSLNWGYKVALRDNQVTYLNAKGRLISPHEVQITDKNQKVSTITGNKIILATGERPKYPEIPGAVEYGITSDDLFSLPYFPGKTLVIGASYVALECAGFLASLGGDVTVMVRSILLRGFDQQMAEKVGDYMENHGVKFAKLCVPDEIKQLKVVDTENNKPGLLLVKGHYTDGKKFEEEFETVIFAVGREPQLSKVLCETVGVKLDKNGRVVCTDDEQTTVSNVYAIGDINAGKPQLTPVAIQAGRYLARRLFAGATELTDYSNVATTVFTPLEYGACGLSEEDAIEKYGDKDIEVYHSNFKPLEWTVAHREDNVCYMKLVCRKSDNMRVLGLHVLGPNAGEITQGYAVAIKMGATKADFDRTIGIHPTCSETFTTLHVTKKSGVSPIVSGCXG

[3] = biological target: T2, thioredoxin glutathione reductase (TGR) (Schistosoma mansoni, UniProt Q962Y6); type: biochemical
T2 sequence (Q962Y6 1-598): T1 sequence (Q962Y6 1-598)

[4] = biological target: T2, thioredoxin glutathione reductase (TGR); details: cited from earlier work
Microsomal stability = details: human liver microsomes, 60 minutes at 37 °C
[5] = 10 μM compound, cultured worms, 4 hr
[6] = 10 μM compound, cultured worms, 24 hr
[7] = 10 μM compound, cultured worms, 48 hr

Structure (SMILES) | Ex Vivo Parasite Killing 2 hr (ex vivo worms in culture; 10 μM compound, cultured worms) | Ex Vivo Parasite Killing 4 hr (ex vivo worms in culture; [5]) | Ex Vivo Parasite Killing 8 hr (ex vivo worms in culture; 10 μM compound, cultured worms) | Ex Vivo Parasite Killing 72 hr (ex vivo worms in culture; 10 μM compound, cultured worms) | further results
N#Cc1c(-c2cccc([N+](=O)[O-])c2)no[n+]1[O-] [Analogue 11] | n.e. | n.e. | n.e. |  | Ex Vivo Parasite Killing 16 hr (ex vivo worms in culture; 10 μM compound, cultured worms): sluggish
COc1ccc(-c2no[n+]([O-])c2C#N)cc1 [Analogue 24] | n.e. | n.e. | n.e. | 100%D | 
N#Cc1c(-c2cc(F)cc(-c3no[n+]([O-])c3C#N)c2)no[n+]1[O-] [Analogue 33] |  |  |  |  | Ex Vivo Parasite Killing 48 hr (ex vivo worms in culture): 100%D; Microsomal stability, NADPH (+) [1]: 20/51 % remaining; Microsomal stability, NADPH (−) [1]: 20/51 % remaining; NO equivalents produced per equivalent of reagent [2]: 1.55 molar equivalents
COc1ccccc1-c1no[n+]([O-])c1C#N [Analogue 21] | n.e. | n.e. |  |  | 
N#Cc1c(-c2cccc(Br)c2)no[n+]1[O-] [Analogue 14] | n.e. | n.e. |  | 100%D | Ex Vivo Parasite Killing 24 hr (ex vivo worms in culture; [6]): 100%D; Ex Vivo Parasite Killing 48 hr (ex vivo worms in culture; [7]): 100%D
N#Cc1c(-c2ccc(Cl)cc2)no[n+]1[O-] [Analogue 17] | n.e. | n.e. | n.e. | 100%D | Ex Vivo Parasite Killing 16 hr (ex vivo worms in culture; 10 μM compound, cultured worms): sluggish
[O-][n+]1onc(-c2ccccc2)c1CO [Analogue 7] |  |  |  |  | NO release / NO donating ability (in words) (TGR): only a weak NO donor
COc1cccc(-c2no[n+]([O-])c2C#N)c1 [Analogue 23] | n.e. | n.e. | n.e. |  | Ex Vivo Parasite Killing 16 hr (ex vivo worms in culture; 10 μM compound, cultured worms): n.e.
N#Cc1c(-c2ccco2)no[n+]1[O-] [Analogue 28] | n.e. | n.e. |  | 100%D | NO release / NO donating ability (in words) (TGR): good NO release profiles; Ex Vivo Parasite Killing 48 hr (ex vivo worms in culture; [7]): 100%D
Cc1ccc(-c2no[n+]([O-])c2C#N)cc1 [Analogue 25] | n.e. | n.e. | n.e. |  | 
O=Cc1c(-c2ccccc2)no[n+]1[O-] [Analogue 8] |  |  |  |  | NO release / NO donating ability (in words) (TGR): only modest NO donating abilities
N#Cc1c(-c2ccc(C(F)(F)F)cc2)no[n+]1[O-] [Analogue 18] | n.e. | n.e. |  | 100%D | 
Cc1c(-c2ccccc2)no[n+]1[O-] [Analogue 6] |  |  |  |  | NO release / NO donating ability (in words) (TGR): inactive as a NO donor; NO donation on reaction with cysteine (in words) [2]: nor was 6 capable of NO donation
N#Cc1c(-c2ccc(F)cc2)no[n+]1[O-] [Analogue 20] | n.e. | n.e. |  | 100%D | Ex Vivo Parasite Killing 48 hr (ex vivo worms in culture; [7]): 100%D
N#Cc1no[n+]([O-])c1-c1ccccc1 [Analogue 5] |  |  |  |  | NO release / NO donating ability (in words) (TGR): no appreciable NO release with TGR; Ex vivo worm killing (in words) (ex vivo worms in culture): nor was either analogue active versus TGR or an effective ex vivo worm killing agent; TGR inhibition (in words) [3]: nor was either analogue active versus TGR
N#Cc1c(-c2cccc(O)c2)no[n+]1[O-] [Analogue 19] | n.e. | n.e. |  | n.e. | Ex Vivo Parasite Killing 16 hr (ex vivo worms in culture; 10 μM compound, cultured worms): n.e.; Ex Vivo Parasite Killing 24 hr (ex vivo worms in culture; [6]): n.e.; Ex Vivo Parasite Killing 48 hr (ex vivo worms in culture; [7]): n.e.
N#Cc1nonc1-c1ccccc1 [Analogue 4] |  |  |  |  | NO release / NO donating ability (in words) (TGR): no appreciable NO release with TGR; Ex vivo worm killing (in words) (ex vivo worms in culture): nor was either analogue active versus TGR or an effective ex vivo worm killing agent; TGR inhibition (in words) [3]: nor was either analogue active versus TGR
N#Cc1c(-c2ccc(-c3ccccc3)cc2)no[n+]1[O-] [Analogue 26] | n.e. | n.e. | sluggish |  | Ex Vivo Parasite Killing 16 hr (ex vivo worms in culture; 10 μM compound, cultured worms): sluggish; Ex Vivo Parasite Killing 24 hr (ex vivo worms in culture; [6]): 20%D
N#Cc1c(-c2cccc(C(F)(F)F)c2)no[n+]1[O-] [Analogue 12] | n.e. | n.e. |  | 100%D | Ex Vivo Parasite Killing 48 hr (ex vivo worms in culture; [7]): 100%D
CC(=O)OC[C@H]1O[C@@H]([S-])[C@H](OC(C)=O)[C@@H](OC(C)=O)[C@@H]1OC(C)=O.CCP(CC)CC.[Au+] [auranofin] |  |  |  |  | TGR inhibition (in words) [4]: potent inhibitor of TGR
N#Cc1c(C(=O)c2cccs2)no[n+]1[O-] [Analogue 30] | n.e. | n.e. | n.e. | n.e. | Ex Vivo Parasite Killing 16 hr (ex vivo worms in culture; 10 μM compound, cultured worms): n.e.; Ex Vivo Parasite Killing 24 hr (ex vivo worms in culture; [6]): n.e.; Ex Vivo Parasite Killing 48 hr (ex vivo worms in culture; [7]): n.e.; NO donation on reaction with cysteine (in words) [2]: capable of releasing NO
N#Cc1c(-c2ccc(F)c(Br)c2)no[n+]1[O-] [Analogue 13] | n.e. | n.e. | curling | 100%D | Ex Vivo Parasite Killing 24 hr (ex vivo worms in culture; [6]): 50%D
O=C(O)c1c(-c2ccccc2)no[n+]1[O-] [Analogue 9] |  |  |  |  | NO release / NO donating ability (in words) (TGR): only modest NO donating abilities
N#Cc1c(-c2cccc(Cl)c2)no[n+]1[O-] [Analogue 15] | n.e. | sluggish |  | 100%D | 
COc1cc(-c2no[n+]([O-])c2C#N)cc(OC)c1OC [Analogue 22] | n.e. | n.e. |  |  | Ex Vivo Parasite Killing 16 hr (ex vivo worms in culture; 10 μM compound, cultured worms): sluggish
N#Cc1c(-c2ccc(O)cc2)no[n+]1[O-] [Analogue 27] | n.e. | n.e. | sluggish | 100%D | 
N#Cc1c(-c2cccc(-c3no[n+]([O-])c3C#N)c2)no[n+]1[O-] [Analogue 31] |  |  |  |  | Ex Vivo Parasite Killing 4 hr (ex vivo worms in culture): curling; Ex Vivo Parasite Killing 24 hr (ex vivo worms in culture): 100%D; Ex Vivo Parasite Killing 48 hr (ex vivo worms in culture): 100%D
N#Cc1c(-c2ccc(Br)cc2)no[n+]1[O-] [Analogue 16] | n.e. | sluggish |  | 100%D | Microsomal stability, NADPH (+) (Microsomal stability; with NADPH): 10 % remaining; Microsomal stability, NADPH (−) (Microsomal stability; without NADPH): 67 % remaining; Ex Vivo Parasite Killing 24 hr (ex vivo worms in culture; [6]): 100%D; Ex Vivo Parasite Killing 48 hr (ex vivo worms in culture; [7]): 100%D

— PMC2772170 (Journal of medicinal chemistry, 2009)
